# Experimental data as given in patent US20260069588A1, “VEPDEGESTRANT FOR USE IN TREATING CANCER” (Arvinas Operation, Inc., priority 2022, published 2026).
# Experiment: Phase 1 single agent studies in Japanese and Chinese participants (C4891016, C4891018): adverse events
# [1] = TEAE treatment related, 200 mg, N = 15
# Source text: TEAE's from participants in both studies have been combined and are described below.
structure (smiles),measurement,setting,value
"O=C1CC[C@H](N2Cc3cc(N4CCN(CC5CCN(c6ccc([C@@H]7c8ccc(O)cc8CC[C@@H]7c7ccccc7)cc6)CC5)CC4)ccc3C2=O)C(=O)N1 [Compound A, (S)-3-(5-(4-((1-(4-((1R,2S)-6-hydroxy-2-phenyl-1,2,3,4-tetrahydronaphthalen-1-yl)phenyl)piperidin-4-yl)methyl)piperazin-1-yl)-1-oxoisoindolin-2-yl)piperidine-2,6-dione]","Gastrointestinal disorders, Grade 3",[1],0 n (%)
same,"Gastrointestinal disorders, Grade 4",[1],0 n (%)
same,"Gastrointestinal disorders, Grade 5",[1],0 n (%)
same,"Gastrointestinal disorders, Missing or Unknown",[1],0 n (%)
same,"Gastrointestinal disorders, Total",[1],4 (26.7) n (%)
same,"General disorders and administration site conditions, Grade 1",[1],0 n (%)
same,"General disorders and administration site conditions, Grade 2",[1],1 (6.7) n (%)
same,"General disorders and administration site conditions, Grade 3",[1],0 n (%)
same,"General disorders and administration site conditions, Grade 4",[1],0) n (%)
same,"General disorders and administration site conditions, Grade 5",[1],0 n (%)
same,"General disorders and administration site conditions, Missing or Unknown",[1],0 n (%)
same,"General disorders and administration site conditions, Total",[1],1 (6.7) n (%)
same,"Headache, Grade 1",[1],1 (6.7) n (%)
same,"Headache, Grade 2",[1],0 n (%)
same,"Headache, Grade 3",[1],0 n (%)
same,"Headache, Grade 4",[1],0 n (%)
same,"Headache, Grade 5",[1],0 n (%)
same,"Headache, Missing or Unknown",[1],0 n (%)
same,"Headache, Total",[1],1 (6.7) n (%)
same,"Hyperuricemia, Grade 1",[1],2 (13.3) n (%)
same,"Hyperuricemia, Grade 2",[1],0 n (%)
same,"Hyperuricemia, Grade 3",[1],0 n (%)
same,"Hyperuricemia, Grade 4",[1],0 n (%)
same,"Hyperuricemia, Grade 5",[1],0 n (%)
same,"Hyperuricemia, Missing or Unknown",[1],0 n (%)
same,"Hyperuricemia, Total",[1],2 (13.3) n (%)
same,"Hypokalemia, Grade 1",[1],1 (6.7) n (%)
same,"Hypokalemia, Grade 2",[1],0 n (%)
same,"Hypokalemia, Grade 3",[1],0 n (%)
same,"Hypokalemia, Grade 4",[1],0 n (%)
same,"Hypokalemia, Grade 5",[1],0 n (%)
same,"Hypokalemia, Missing or Unknown",[1],0 n (%)
same,"Hypokalemia, Total",[1],1 (6.7) n (%)
same,"Hypophosphatasemia, Grade 1",[1],1 (6.7) n (%)
same,"Hypophosphatasemia, Grade 2",[1],0 n (%)
same,"Hypophosphatasemia, Grade 3",[1],0 n (%)
same,"Hypophosphatasemia, Grade 4",[1],0 n (%)
same,"Hypophosphatasemia, Grade 5",[1],0 n (%)
same,"Hypophosphatasemia, Missing or Unknown",[1],0 n (%)
same,"Hypophosphatasemia, Total",[1],1 (6.7) n (%)
same,"Investigations, Grade 1",[1],4 (26.7) n (%)
same,"Investigations, Grade 2",[1],1 (6.7) n (%)
same,"Investigations, Grade 3",[1],2 (13.3) n (%)
same,"Investigations, Grade 4",[1],0 n (%)
same,"Investigations, Grade 5",[1],0 n (%)
same,"Investigations, Missing or Unknown",[1],0 n (%)
same,"Investigations, Total",[1],7 (46.7) n (%)
same,"Metabolism and nutrition disorders, Grade 1",[1],3 (20.0) n (%)
same,"Metabolism and nutrition disorders, Grade 2",[1],0 n (%)
same,"Metabolism and nutrition disorders, Grade 3",[1],0 n (%)
same,"Metabolism and nutrition disorders, Grade 4",[1],0 n (%)
same,"Metabolism and nutrition disorders, Grade 5",[1],0) n (%)
same,"Metabolism and nutrition disorders, Missing or Unknown",[1],0 n (%)
same,"Metabolism and nutrition disorders, Total",[1],3 (20.0) n (%)
same,"Musculoskeletal and connective tissue disorders, Grade 1",[1],1 (6.7) n (%)
same,"Musculoskeletal and connective tissue disorders, Grade 2",[1],0) n (%)
same,"Musculoskeletal and connective tissue disorders, Grade 3",[1],0 n (%)
same,"Musculoskeletal and connective tissue disorders, Grade 4",[1],0 n (%)
same,"Musculoskeletal and connective tissue disorders, Grade 5",[1],0 n (%)
same,"Musculoskeletal and connective tissue disorders, Missing or Unknown",[1],0 n (%)
same,"Musculoskeletal and connective tissue disorders, Total",[1],1 (6.7) n (%)
same,"Nausea, Grade 1",[1],1 (6.7) n (%)
same,"Nausea, Grade 2",[1],0 n (%)
same,"Nausea, Grade 3",[1],0 n (%)
same,"Nausea, Grade 4",[1],0 n (%)
same,"Nausea, Grade 5",[1],0 n (%)
same,"Nausea, Missing or Unknown",[1],0 n (%)
same,"Nausea, Total",[1],1 (6.7) n (%)
same,"Nervous system disorders, Grade 1",[1],2 (13.3) n (%)
same,"Nervous system disorders, Grade 2",[1],0 n (%)
same,"Nervous system disorders, Grade 3",[1],0 n (%)
same,"Nervous system disorders, Grade 4",[1],0 n (%)
same,"Nervous system disorders, Grade 5",[1],0 n (%)
same,"Nervous system disorders, Missing or Unknown",[1],0 n (%)
same,"Nervous system disorders, Total",[1],2 (13.3) n (%)
same,"Neutrophil count decreased, Grade 1",[1],1 (6.7) n (%)
same,"Neutrophil count decreased, Grade 2",[1],0 n (%)
same,"Neutrophil count decreased, Grade 3",[1],1 (6.7) n (%)
same,"Neutrophil count decreased, Grade 4",[1],0 n (%)
same,"Neutrophil count decreased, Grade 5",[1],0 n (%)
same,"Neutrophil count decreased, Missing or Unknown",[1],0 n (%)
same,"Neutrophil count decreased, Total",[1],2 (13.3) n (%)
same,"Pain, Grade 1",[1],0 n (%)
same,"Pain, Grade 2",[1],1 (6.7) n (%)
same,"Pain, Grade 3",[1],0 n (%)
same,"Pain, Grade 4",[1],0 n (%)
same,"Pain, Grade 5",[1],0 n (%)
same,"Pain, Missing or Unknown",[1],0 n (%)
same,"Pain, Total",[1],1 (6.7) n (%)
same,"Participants with events, Grade 1",[1],7 (46.7) n (%)
same,"Participants with events, Grade 2",[1],2 (13.3) n (%)
same,"Participants with events, Grade 3",[1],2 (13.3) n (%)
same,"Participants with events, Grade 4",[1],0 n (%)
same,"Participants with events, Grade 5",[1],0 n (%)
same,"Participants with events, Missing or Unknown",[1],0 n (%)
same,"Participants with events, Total",[1],11 (73.3) n (%)
same,"Platelet count decreased, Grade 1",[1],1 (6.7) n (%)
same,"Platelet count decreased, Grade 2",[1],0 n (%)
same,"Platelet count decreased, Grade 3",[1],0 n (%)
same,"Platelet count decreased, Grade 4",[1],0 n (%)
same,"Platelet count decreased, Grade 5",[1],0) n (%)
same,"Platelet count decreased, Missing or Unknown",[1],0 n (%)
same,"Platelet count decreased, Total",[1],1 (6.7) n (%)
same,"Pruritus, Grade 1",[1],1 (6.7) n (%)
same,"Pruritus, Grade 2",[1],0 n (%)
same,"Pruritus, Grade 3",[1],0 n (%)
same,"Pruritus, Grade 4",[1],0) n (%)
same,"Pruritus, Grade 5",[1],0 n (%)
same,"Pruritus, Missing or Unknown",[1],0 n (%)
same,"Pruritus, Total",[1],1 (6.7) n (%)
same,"Sinus bradycardia, Grade 1",[1],1 (6.7) n (%)
same,"Sinus bradycardia, Grade 2",[1],0 n (%)
same,"Sinus bradycardia, Grade 3",[1],0 n (%)
same,"Sinus bradycardia, Grade 4",[1],0 n (%)
same,"Sinus bradycardia, Grade 5",[1],0 n (%)
same,"Sinus bradycardia, Missing or Unknown",[1],0 n (%)
same,"Sinus bradycardia, Total",[1],1 (6.7) n (%)
same,"Skin and subcutaneous tissue disorders, Grade 1",[1],2 (13.3) n (%)
same,"Skin and subcutaneous tissue disorders, Grade 2",[1],0 n (%)
same,"Skin and subcutaneous tissue disorders, Grade 3",[1],0 n (%)
same,"Skin and subcutaneous tissue disorders, Grade 4",[1],0 n (%)
same,"Skin and subcutaneous tissue disorders, Grade 5",[1],0 n (%)
same,"Skin and subcutaneous tissue disorders, Missing or Unknown",[1],0 n (%)
same,"Skin and subcutaneous tissue disorders, Total",[1],2 (13.3) n (%)
same,"White blood cell count decreased, Grade 1",[1],0 n (%)
same,"White blood cell count decreased, Grade 2",[1],0 n (%)
same,"White blood cell count decreased, Grade 3",[1],1 (6.7) n (%)
same,"White blood cell count decreased, Grade 4",[1],0 n (%)
same,"White blood cell count decreased, Grade 5",[1],0 n (%)
same,"White blood cell count decreased, Missing or Unknown",[1],0 n (%)
same,"White blood cell count decreased, Total",[1],1 (6.7) n (%)
same,discontinuations due to TEAE,in vivo,No discontinuations reported due to TEAE
